Results as given in patent EP1785722A1, “Microbial, viral and mammalian susceptibility to agents that affect cell growth and metabolism, and compatibility of compounds” (Stratos Bio Ltd., priority 2005, dated 2007).

What was measured:
[1] = tested on: Micrococcus flavus; experiment: MIC / MBC against Micrococcus flavus; assay type: cell-based; conditions: as printed in table heads
[2] = tested on: E. coli; experiment: MIC / MBC against E. coli; assay type: cell-based
[3] = tested on: respiring E.coli; experiment: Microcalorimetry of respiring E. coli in glucose buffer; assay type: cell-based
Procedure: E.coli was suspended in 10% DMSO prior to freezing and the viable counts were for batch 1: pre-freeze: 4.0 ± 0.6_ x 10^10 cfu/ml and post -freeze 2.0 ± 0.44 x 10^10 cfu/ml and for batch 2: pre-freeze: 3.45 ± 0.58 x 10^10 cfu/ml and post-freeze 2.93 ± 0.43 x 10^10 cfu/ml. The freezing rate for both batches was 20°C/min the survival rate was 50% for batch 1 and 85% for batch 2. These differences may have been due to batch 1 being kept for 24h at 4°C before being frozen.
The respiration experiments were carried out in glucose buffer at different pH. The respiration curves obtained from batch 1 (inoculum 2 x 10^10 cfu/ml) and batch 2 Inoculum 3.2 x 10^10 cfu/ml) were essentially similar and a mean was used as a reference). The respiration experiments were carried out at pH 7 for polymyxin and Znbacitracin and at pH 8 for neomycin. No differences in p-t control curves could be observed at pH 7 or pH 8.
The p-t curves rose and reached a plateau as has been observed for respiration of yeasts and some 20 min later fell to a lower plateau value. Prior incubation of the cells in the buffered glucose for periods up to 20 min before presentation to the calorimeter could reduce or entirely remove this effect.

[4] = tested on: Bordetella Bronchiseptica; experiment: Flow microcalorimetry (p-t curves) of growing Bordetella bronchiseptica; assay type: cell-based
From the text: (§1) • a) For B. pumilus a simple glucose/salts medium was employed with a glucose concentration of 0.1 % w/v. • b) For Bord. bronch. The above salts medium was used with the addition of nicotinic acid, methionine and glutamic acid. Glutamic acid was used at a concentration of 0.2% w/v. • c) For M. flavus a semidefined medium was employed, using the same salts as a B. pumilus but also Na-citrate, biotin and protease peptone. In the calorimeter a concentration of 0.4% protease peptone was used. All medium constituents (except protease) were analytical reagents. The calorimetric medium was therefore a final concentration of 100ml of either solution a, b or c freshly autoclaved for 15 mins exactly at 121°C, 151b/sq inch. Glucose was added to the appropriate solution after autoclaving.
(§2) To the vertical face of the vessel close to its base, equidistantly spaced around the circumference, ports were fitted for an oxygen electrode and for sampling/inoculation. The fermenter was closed with a flat flanged glass lid which had five ports accommodating respectively, gas inlet tube, gas exhaust (via air condenser), inlet and outlet flow-lines to and from the calorimeter. The fermenter and lid was sealed with a p.t.f.e. gasket and clamped with a metal clip. The fermenter was placed on a magnetic stirring unit in a water jacket which allowed circulation of the thermostatically controlled water at 30°C or 37°C. The fermenter which contained a Teflon coated magnetic stirring bar, was sterilised by autoclaving.
(§3) For a typical calorimetric incubation the medium was passed through the calorimetric vessel at the same flow rate and temperature as those used in the experiment to establish a steady baseline deflection. The following operations then took place to a strict timetable. The liquid nitrogen stored ampoule was thawed at 38°C for 3 min and then stirred for 20 sec on a whirlimixer. The bacterial suspension (0.5-1.5ml) volumes was inoculated into the medium (100ml) two minutes after completion of thawing. A Gilson automatic pipette was used for inoculation. The calorimeter inlet flow-line was placed in the incubation medium 30 seconds after inoculation. The flowing incubation medium reached the calorimetric vessel two min after inlet flow-line insertion. At this time the recording of the p-t curves was started. Eight min after inoculation the outflow from the calorimeter was returned to the fermenter (after the "baseline" medium had run to waste but before the inoculated medium ran to waste) thus making a closed system. Aeration was started as soon as the inlet tube was inserted in the fermenter. Microbiological purity of the culture was checked by plating out a sample of the culture at the end of each incubation on nutrient agar (lab M).
(§4) The output of calorimetric experiments is a plot of power (energy evolution per unit of time) as a function of time. The unit of power (p) is the Watt (W) and the unit of time is the hour (h). In some experiments seconds (s) were used as time unit.
After successful freezing of Bord. bronch p-t curves for growth in different concentrations of glutamic acid from 0.1%-0.5% were obtained. It was concluded that a medium containing 0.2% glutamic acid would be sufficient for a good deflection in the microcalorimeter minimising the possibility of the bacteria clogging in the microcalorimetric cell or in the teflon tubes leading to and from the microcalorimetric cell. A pH of 7 was used in all the following experiments as this is the optimum pH for polymyxin - lipid binding.
It was of vital importance to maintain a constant oxygen tension; this was achieved by using saturation concentrations of oxygen. It was decided to use the height of the small peak as full scale deflection for the antibiotic assay as the increase in power was exponential up to this point and the peak occurred at a convenient time. This choice of assay point was empirical. The inoculum was 1.1 ± 0.06 x 10^8 cfu/ml for all the microclalorimetric incubations. […]

[5] = tested on: B. pumilus; experiment: MIC determination against B. pumilus; assay type: cell-based, Bacillus pumilus
Procedure: (§5) However when the concentration of organisms was 5.1 x 10^6 cfu/ml which was the inoculum used in the microcalorimetric incubations the MIC was increased to 2 µg/ml; the effect was also bacteriostatic.

[6] = tested on: Micrococcus flavus; experiment: Flow microcalorimetry (p-t curves) of growing Micrococcus flavus; assay type: cell-based; conditions: single antibiotic at its MIC (4 ug/ml Neo; 2ug/ml POLB)
From the text: as §1, §2, §3, §4
This point occurred at an increase in deflection of 29.5% from the baseline value.

[7] = tested on: Bacillus pumilus; experiment: Flow microcalorimetry (p-t curves) of growing Bacillus pumilus; assay type: cell-based
From the text: as §1, §2, §3, §4, §5

[8] = tested on: Bordetella Bronchiseptica; experiment: MIC / MBC against Bordetella bronchiseptica; assay type: cell-based
[9] = 0.25 ug/ml added at 0 % of p-t curve

NC[C@@H]1O[C@H](O[C@H]2[C@@H](O)[C@H](O[C@@H]3[C@@H](O)[C@H](N)C[C@H](N)[C@H]3O[C@H]3O[C@H](CN)[C@@H](O)[C@H](O)[C@H]3N)O[C@@H]2CO)[C@H](N)[C@@H](O)[C@@H]1O.O=S(=O)(O)O [neomycin sulphate, Neomycin sulphate]
MIC [1]: 4 µg/mL
MBC ([2]; as printed in table head): 5900 µg/mL
MIC ([2]; as printed in table head): 5900 µg/mL
MIC ([2]; text): 500 µg/mL
effect on power ([3]; Fig. 16): an increase in power
Comments ([3]; NEO 500 ug/ml): Consistent with increased rate of RNA synthesis
Observed effect on p-t curves ([3]; NEO 500 ug/ml, pH 8): Increase in heat output
heat output ([3]; all concentrations): increased heat output
Linear dose-response between ([3]; table): 10 to 100 µg/mL
linear relationship between dose and the reciprocal of increase in response from the control curve ([3]; text): 20 to 100 µg/mL
Observed effect on p-t curves ([4]; single antibiotic at its MIC (0.25ug/ml Neo; 100ug/ml ZNB), added at 50 % of p-t curve): No effect on p-t curve
effect at MIC ([5]; 5.1 x 10^6 cfu/ml): bacteriostatic
MIC ([5]; 5.1 x 10^6 cfu/ml, inoculum used in the microcalorimetric incubations): 2 µg/mL
MIC ([5]; inoculum of 1x10^5 cfu/ml): 0.1 µg/mL
effect at MIC ([5]; inoculum of 1x10^5 cfu/ml): bacteriostatic
MIC ([5]; listed as NEO): 1 µg/mL
Observed effect on p-t curves [6]: No effect on p-t curve
Comments [7, 9]: No effect
Observed effect on p-t curves Related to standard growth curve [7, 9]: 1X standard curve
Comments ([7]; 0.5 ug/ml added at 0 % of p-t curve): Inhibition of RNA synthesis
Comments ([7]; 1 ug/ml added at 10 % of p-t curve): Growth promoting effect potential stimulation of RNA synthesis
Observed effect on p-t curves Related to standard growth curve ([7]; 1 ug/ml added at 10 % of p-t curve, at 11 h): 1.2 X signal at 11 h
Comments ([7]; 1 ug/ml added at 15 % of p-t curve): Growth promoting effect potential stimulation of RNA synthesis
Observed effect on p-t curves Related to standard growth curve ([7]; 1 ug/ml added at 15 % of p-t curve, at 11 h): 1.2 X signal at 11 h
Comments ([7]; 1 ug/ml added at 25 % of p-t curve): Growth promoting effect potential stimulation of RNA synthesis
Observed effect on p-t curves Related to standard growth curve ([7]; 1 ug/ml added at 25 % of p-t curve, at 11 h): 5X signal at 11 h
Comments ([7]; 2 ug/ml added at 10 % of p-t curve): Growth promoting effect potential stimulation of RNA synthesis
Observed effect on p-t curves Related to standard growth curve ([7]; 2 ug/ml added at 10 % of p-t curve, at 11 h): 1.2 Xsignal at 11 h
power output ([7]; 0.5 and 1 x MIC (1-2 µg/ml) added after an increase of 10% of full scale deflection): the same effect was observed
power output ([7]; 0.5 x MIC (1µg/ml) added after a 25% increase power output): massive power output 2-4h after addition
Comments ([7]; > 2 ug/ml added at 10 % of p-t curve): Inhibition of RNA synthesis Possible to achieve linear dose-response at 7 hours after addition of antibiotic to the bacterial culture, after 11 hours heat-out put levels off b ut do not return to baseline indicating a bacteriostatic effect and maximum inhibition of RNA synthesis
Observed effect on p-t curves Related to standard growth curve ([7]; > 2 ug/ml added at 10 % of p-t curve, at 11 h): 0.75 or less at 11 h
power output ([7]; added after an increase in power output of 15% of full scale deflection): only marginally larger than that observed for the normal growth curve
power output ([7]; higher concentrations of antibiotic): a decrease in power output was observed
concentrations at which an increased heat output can be observed ([7]; organism not given): < 1 µg/mL
MIC ([8]; as printed in table heads): 0.25 µg/mL

Polymyxin B sulphate
MIC [1]: 2 µg/mL
MBC ([2]; as printed in table head): 6.3 µg/mL
MIC ([2]; as printed in table head): 6.3 µg/mL
MBC ([2]; text): 6.3 µg/mL
MIC ([2]; text): 6.3 µg/mL
sensitivity of the assay [3]: 3 µg/mL
effect on p-t curve ([3]; Fig. 15): reduced the initial peak height and thereafter the p-t curve returned to baseline
Comments ([3]; POLB 6.3 ug/ml): Bacteriocidal action demonstrated
time to return to baseline (after reduced height of p-t curve initially) ([3]; POLB 6.3 ug/ml, pH 7): Reduced height of p-t curve initially and returned to baseline within 1 hour
concentration above which the declines were identical [4]: > 3.5 x MIC
time to observable response after addition [4]: ≤ 5 min
Observed effect on p-t curves ([4]; 0.07 ug/ml added at 18 % of p-t curve): No effect on growth curve
response of p-t curve ([4]; 0.033 x MIC (0.07 µg/ml)): no response to the antibiotic was observed
Comments ([4]; 0.35 -2 ug/ml added at 18 % of p-t curve): All curves return to baseline confirmed bacteriocidal action
Observed effect on p-t curves ([4]; 0.35 -2 ug/ml added at 18 % of p-t curve, CV 2.5%): Linear log dose response 10 min after addition of antibiotic CV 2.5%
time to sharp decline in heat output after addition ([4]; 0.5 x MIC): ≤ 10 min
mode of action ([4]; at MIC values): bactericidal
MIC ([5]; as printed in table heads): 20 µg/mL
Observed effect on p-t curves [6]: Slightly delayed peak
time until growth was inhibited completely ([7]; 20ug/ml POLB, pH 8.00): Within 9 hours growth was inhibited completely
MBC ([8]; as printed in table head): Ug/ml MIC & MBC 2 ug/ml
MIC ([8]; as printed in table heads): Ug/ml MIC & MBC 2 ug/ml
MIC ([8]; listed as POL): 2 µg/mL
MBC ([8]; text): 2 µg/mL
MIC ([8]; text): 2 µg/mL
